# From PMC7904550, “Application of grouping and read-across for the evaluation of parabens of different chain lengths with a particular focus on endocrine properties” (Archives of Toxicology, 2021)
# Read-outs that look alike come from different tables or passages of the source.
# Legend:
# [1] = Octanol–water partition coefficient (Log Kow); type: physicochemical; settings: mean; OECD TG 107 and OECD TG 117
# From the text: Generally, these parabens have very similar physico-chemical properties.
# Wistar rats [2] = assay: Prenatal developmental toxicity study (OECD TG 414); type: in vivo, rat; settings: for NOAEL, developmental toxicity: OECD 414 v 2001, oral gavage
# From the text: Healthy and specific pathogen-free male and female (non-pregnant and nulliparous) Wistar Crl: WI(Han) rats were obtained from Charles River Laboratories (Germany). […] Upon arrival at BSL BIOSERVICE, the animals underwent an acclimatisation period of at least 5 days, and they were approximately 15–16 weeks old at the onset of the treatment period.
# Wistar rats [3] = assay: Higher-tier studies taken together (OECD TG 408, 414, 421/422, 443): NOAEL
# Protocol: All in vivo studies were conducted as oral gavage studies, selecting the oral route as most appropriate route of administration to reflect the worst-case exposure scenario. […] The OECD TG 443 included mating of first generation (F1) offspring to produce a second generation (F2), and the DIT and DNT cohorts.
# rats [4] = settings: acute oral, rats, OECD 401; ref ECHA dissemination portal; cited from earlier work
# rats [5] = settings: rat, in vivo; cited from earlier work
# rats [6] = settings: rat, in vivo; cited from earlier work; remark: listed apart in the source
# Wistar rats [7] = settings: ref Harlan 2012, cited from earlier work
# rats [8] = settings: key studies Gazin et al. 2013, Pouliot 2013; ref SCCS 2013; EMA 2015; cited from earlier work
smiles,measurement,setting,value
"CCCOC(=O)c1ccc(O)cc1 [Propyl paraben, Propyl 4-hydroxybenzoate]",Log Kow,[1],2.8 (mean; OECD TG 107 and OECD TG 117)
same,"NOAEL, developmental toxicity",Wistar rats [2],NOAEL: 1000 (OECD 414; v 2001) mg/kg body weight/day
same,"NOAEL, developmental toxicity",Wistar rats [2]; listed as propyl paraben,1000 mg/kg body weight/day
same,Gestation length,Wistar rats [2]; OECD TG 414,n.a. / NAE
same,NOAEL: No. of foetal deaths; viable foetuses,Wistar rats [2]; OECD TG 414,1000 mg/kg bw/day
same,"No. of implantations, corpora lutea",Wistar rats [2]; OECD TG 414,NAE / NAE
same,No. of live births,Wistar rats [2]; OECD TG 414,NAE / NAE
same,Postimplantation loss,Wistar rats [2]; OECD TG 414,NAE / NAE
same,Pre-implantation loss,Wistar rats [2]; OECD TG 414,NAE / NAE
same,Uterus weight (with cervix),Wistar rats [2]; OECD TG 414,NAE / NAE
same,Thyroid HP,Wistar rats [2]; dams,NAE / NAE (dams)
same,Thyroid stimulating hormone level,Wistar rats [2]; dams,NAE / NAE (dams)
same,Thyroid weight,Wistar rats [2]; dams,NAE / NAE (dams)
same,Triiodothyronine / thyroxine level,Wistar rats [2]; dams,NAE / NAE (dams)
same,Anogenital distance,Wistar rats [2]; foetus,NAE / NAE
same,Foetal development,Wistar rats [2]; foetus,NAE / NAE
same,Litter size,Wistar rats [2]; foetus,NAE / NAE
same,No. of foetal deaths; viable foetuses,Wistar rats [2]; foetus,NAE / NAE
same,"Presence of anomalies (external, visceral, skeletal)",Wistar rats [2]; foetus,NAE / NAE
same,Treatment-related effects in dams or pups,Wistar rats [2]; implantation throughout pregnancy,No treatment-related effects
same,"NOAEL, repeated-dose toxicity and DART, all higher-tier studies","Wistar rats [3]; limit dose, oral gavage",1000 mg/kg bw/day
same,NOAEL: Accessory sex organs HP,Wistar rats [3]; over all higher-tier studies,1000 / 1000 mg/kg bw/day
same,NOAEL: Adrenals HP,Wistar rats [3]; over all higher-tier studies,1000 / 1000 mg/kg bw/day
same,NOAEL: Adrenals weight,Wistar rats [3]; over all higher-tier studies,1000 / 1000 mg/kg bw/day
same,NOAEL: Age at balano-preputial separation,Wistar rats [3]; over all higher-tier studies,1000 / 1000 mg/kg bw/day
same,NOAEL: Age at vaginal opening,Wistar rats [3]; over all higher-tier studies,1000 / 1000 mg/kg bw/day
same,NOAEL: Anogenital distance,Wistar rats [3]; over all higher-tier studies,1000 / 1000 mg/kg bw/day
same,NOAEL: Auditory startle,Wistar rats [3]; over all higher-tier studies,1000 / 1000 mg/kg bw/day
same,NOAEL: Brain HP,Wistar rats [3]; over all higher-tier studies,1000 / 1000 mg/kg bw/day
same,NOAEL: Brain morphometric evaluation,Wistar rats [3]; over all higher-tier studies,1000 / 1000 mg/kg bw/day
same,NOAEL: Brain weight,Wistar rats [3]; over all higher-tier studies,1000 / 1000 mg/kg bw/day
same,NOAEL: Cervix HP,Wistar rats [3]; over all higher-tier studies,1000 / 1000 mg/kg bw/day
same,NOAEL: Coagulating gland HP,Wistar rats [3]; over all higher-tier studies,1000 / 1000 mg/kg bw/day
same,NOAEL: Coagulating gland weight,Wistar rats [3]; over all higher-tier studies,1000 / 1000 mg/kg bw/day
same,NOAEL: Colloid area (thyroid HP),Wistar rats [3]; over all higher-tier studies,1000 / 1000 mg/kg bw/day
same,NOAEL: Dystocia,Wistar rats [3]; over all higher-tier studies,1000 / 1000 mg/kg bw/day
same,NOAEL: Epididymis HP,Wistar rats [3]; over all higher-tier studies,1000 / 1000 mg/kg bw/day
same,NOAEL: Epididymis weight,Wistar rats [3]; over all higher-tier studies,1000 / 1000 mg/kg bw/day
same,NOAEL: Fertility,Wistar rats [3]; over all higher-tier studies,1000 / 1000 mg/kg bw/day
same,NOAEL: Foetal development,Wistar rats [3]; over all higher-tier studies,1000 / 1000 mg/kg bw/day
same,NOAEL: Functional observation battery,Wistar rats [3]; over all higher-tier studies,1000 / 1000 mg/kg bw/day
same,NOAEL: Genital abnormalities,Wistar rats [3]; over all higher-tier studies,1000 / 1000 mg/kg bw/day
same,NOAEL: Gestation length,Wistar rats [3]; over all higher-tier studies,1000 / 1000 mg/kg bw/day
same,NOAEL: Litter / pup weight,Wistar rats [3]; over all higher-tier studies,1000 / 1000 mg/kg bw/day
same,NOAEL: Litter size,Wistar rats [3]; over all higher-tier studies,1000 / 1000 mg/kg bw/day
same,NOAEL: Litter viability,Wistar rats [3]; over all higher-tier studies,1000 / 1000 mg/kg bw/day
same,NOAEL: Liver weight,Wistar rats [3]; over all higher-tier studies,1000 / 1000 mg/kg bw/day
same,NOAEL: Mammary gland HP; females,Wistar rats [3]; over all higher-tier studies,1000 / 1000 mg/kg bw/day
same,NOAEL: Mammary gland HP; males,Wistar rats [3]; over all higher-tier studies,1000 / 1000 mg/kg bw/day
same,NOAEL: Motor activity,Wistar rats [3]; over all higher-tier studies,1000 / 1000 mg/kg bw/day
same,NOAEL: Nipple development,Wistar rats [3]; over all higher-tier studies,1000 / 1000 mg/kg bw/day
same,"NOAEL: No. of implantations, corpora lutea",Wistar rats [3]; over all higher-tier studies,1000 / 1000 mg/kg bw/day
same,NOAEL: No. of live births,Wistar rats [3]; over all higher-tier studies,1000 / 1000 mg/kg bw/day
same,NOAEL: No. of ovarian follicles,Wistar rats [3]; over all higher-tier studies,1000 / 1000 mg/kg bw/day
same,NOAEL: Oestrus cyclicity,Wistar rats [3]; over all higher-tier studies,1000 / 1000 mg/kg bw/day
same,NOAEL: Offspring: learning & memory,Wistar rats [3]; over all higher-tier studies,1000 / 1000 mg/kg bw/day
same,NOAEL: Ovary HP,Wistar rats [3]; over all higher-tier studies,1000 / 1000 mg/kg bw/day
same,NOAEL: Ovary weight,Wistar rats [3]; over all higher-tier studies,1000 / 1000 mg/kg bw/day
same,NOAEL: Oviduct HP,Wistar rats [3]; over all higher-tier studies,1000 / 1000 mg/kg bw/day
same,NOAEL: Pituitary HP,Wistar rats [3]; over all higher-tier studies,1000 / 1000 mg/kg bw/day
same,NOAEL: Pituitary weight,Wistar rats [3]; over all higher-tier studies,1000 / 1000 mg/kg bw/day
same,NOAEL: Postimplantation loss,Wistar rats [3]; over all higher-tier studies,1000 / 1000 mg/kg bw/day
same,NOAEL: Pre-implantation loss,Wistar rats [3]; over all higher-tier studies,1000 / 1000 mg/kg bw/day
same,NOAEL: Presence of anomalies,Wistar rats [3]; over all higher-tier studies,1000 / 1000 mg/kg bw/day
same,NOAEL: Prostate HP,Wistar rats [3]; over all higher-tier studies,1000 / 1000 mg/kg bw/day
same,NOAEL: Prostate weight,Wistar rats [3]; over all higher-tier studies,1000 / 1000 mg/kg bw/day
same,NOAEL: Pup development,Wistar rats [3]; over all higher-tier studies,1000 / 1000 mg/kg bw/day
same,NOAEL: Reproduction,Wistar rats [3]; over all higher-tier studies,1000 / 1000 mg/kg bw/day
same,NOAEL: Seminal vesicles HP,Wistar rats [3]; over all higher-tier studies,1000 / 1000 mg/kg bw/day
same,NOAEL: Seminal vesicles weight,Wistar rats [3]; over all higher-tier studies,1000 / 1000 mg/kg bw/day
same,NOAEL: Sperm morphology,Wistar rats [3]; over all higher-tier studies,1000 / 1000 mg/kg bw/day
same,NOAEL: Sperm motility,Wistar rats [3]; over all higher-tier studies,1000 / 1000 mg/kg bw/day
same,NOAEL: Sperm numbers,Wistar rats [3]; over all higher-tier studies,1000 / 1000 mg/kg bw/day
same,NOAEL: Testis HP,Wistar rats [3]; over all higher-tier studies,1000 / 1000 mg/kg bw/day
same,NOAEL: Testis weight,Wistar rats [3]; over all higher-tier studies,1000 / 1000 mg/kg bw/day
same,NOAEL: Thyroid HP,Wistar rats [3]; over all higher-tier studies,1000 / 1000 mg/kg bw/day
same,NOAEL: Thyroid stimulating hormone level,Wistar rats [3]; over all higher-tier studies,1000 / 1000 mg/kg bw/day
same,NOAEL: Thyroid weight,Wistar rats [3]; over all higher-tier studies,1000 / 1000 mg/kg bw/day
same,NOAEL: Time to mating,Wistar rats [3]; over all higher-tier studies,1000 / 1000 mg/kg bw/day
same,NOAEL: Triiodothyronine / thyroxine level,Wistar rats [3]; over all higher-tier studies,1000 / 1000 mg/kg bw/day
same,NOAEL: Uterus HP (with cervix),Wistar rats [3]; over all higher-tier studies,1000 / 1000 mg/kg bw/day
same,NOAEL: Uterus weight (with cervix),Wistar rats [3]; over all higher-tier studies,1000 / 1000 mg/kg bw/day
same,NOAEL: Vagina HP,Wistar rats [3]; over all higher-tier studies,1000 / 1000 mg/kg bw/day
same,NOAEL: Vaginal smears,Wistar rats [3]; over all higher-tier studies,1000 / 1000 mg/kg bw/day
same,LD50,rats [4],> 5000 (OECD 401; 1982) mg/kg bw
same,Skin irritation/skin corrosion classification,rats [5],Not irritating (read-across)
same,Eye irritation/eye corrosion classification,rats [6],Not irritating [c] (OECD 437 and 405; 2012)
same,NOAEL,"Wistar rats [7]; historical OECD TG 422 feeding study, 15,000 ppm, first-generation offspring",1125 mg/kg bw/day
same,NOAEL,"Wistar rats [7]; historical OECD TG 422 feeding study, 15,000 ppm, parental females before pairing",1076 mg/kg bw/day
same,NOAEL,"Wistar rats [7]; historical OECD TG 422 feeding study, 15,000 ppm, parental males before pairing",981 mg/kg bw/day
same,NOAEL,"Wistar rats [7]; historical OECD TG 422 feeding study, highest concentration tested","15,000 ppm"
same,NOAEL,rats [8],1000 mg/kg bw/day
